Laboratory results as given in US5518737A, “Peroral drug delivery system” (priority 1991, dated 1996).
Where a name gives a salt, the structure may show the parent alone. Read-outs that look alike come from different tables or passages of the source.

Experiments:
[1] = Release of timolol from silicone microspheres (rotating bottle method); type: physicochemical; conditions: for release of timolol from silicone microspheres after 1 hour: pH 7.4, 37° C., 100 mg microspheres
Method: In silicone microspheres, timolol maleate was used as a model drug and sodium phosphate and Tris buffer as release-controlling adjuvants. Spray-dried drug and adjuvants were either simply mixed as power mixtures or they were spray dried together. To prepare silicone microspheres, the drug (2-20 wt %) and, if present, pH-adjusting agent (0-10 wt %) were mixed with the silicone elastomer (an amine resistant Dow Corning X7-3012 elastomer), and the curing agent was added. One part of the curing agent is mixed in ten parts of the polymer. Vulcanization of the X7-3012 elastomers is based on a platinum catalyzed addition (hydrosilylation) reaction. Two grams of the drug-polymer mixture was dispersed in 35 grams of liquid paraffin using an overhead stirrer at 190 rpm and 22° C. The temperature was raised to 50° C. in 1 hour. After 3 hours, the heating was stopped, and the mixture gradually cooled back to 22° C. […] Microparticles were separated from paraffin by filtration, washed with n-hexane and dried at room temperature. The mean particle size of the microspheres was 150±50 μm (mean±SD) (FIG. 14) and the entrapment efficiency of timolol maleate was 60-75%. Release of timolol from the silicone microspheres was studied using the rotating bottle method (NF XIV) in pH 7.4 phosphate buffer at 37° C. The volume of dissolution medium was 3 ml and the amount of microspheres 100 mg. The release timolol was analysed using reverse phase HPLC at 294 nm.

[2] = Dissolution rate of propranolol hydrochloride by rotating disc method; type: physicochemical; conditions: 34° C., 550 mOsm, μ=0.3
Excerpt: Each experiment was repeated five times.

[3] = membranes incubated at pH 7.4 or pH 9.0 propranolol hydrochloride solutions prior to device preparation
Method: The thickness of the membranes was 150 μm. Solid propranolol hydrochloride (2 mg) was placed without or with pH-adjusting additives (sodium phosphate/disodium phosphate in different proportions, Tris buffer) (2 mg) on a cut piece of silicone membrane. Another silicone membrane was glued on the former so that the drug and, if present, adjuvant were encapsulated inside two membranes.
Propranolol release from the devices was studied in vitro at pH 7.4 in phosphate buffer from one side of the device in side-by-side diffusion cell. The exposed drug releasing surface was 0.7 cm^2. The released propranolol was analysed using reverse phase HPLC at 254 nm.

physchem = conditions: buffer, pH 7.3, aqueous buffer
Method: Solubility of propranolol hydrochloride in buffer solutions at 34° C. was investigated by shaking propranolol hydrochloride suspension in the solvent. After equilibration, the saturated solutions were filtered and the concentration of propranolol in the filtrates was assayed by HPLC as described above. […] Each experiment was repeated five times.

SMILES | release of timolol from silicone microspheres after 1 hour ([1]; 2 wt % drug loading) [µg] | release relative to absence of the pH-adjusting agent ([1]; 2 wt % timolol, 1 wt % Tris) | effect on release rate of adding disodium phosphate ([1]; 2 wt % timolol, 1 wt % disodium phosphate) | release of timolol from silicone microspheres after 1 hour ([1]; 20 wt % drug loading) [µg] | release relative to absence of the pH-adjusting agent ([1]; 20 wt % timolol, 10 wt % Tris) | relationship between the release of timolol and the square root of the time elapsed ([1]; pH 7.4 phosphate buffer, 37° C.) | release of timolol after 1 hour ([1]; timolol and disodium phosphate spray dried together) [µg] | dissolution rate, pH 7.3 versus pH 9.4 [2] | dissolution rate ([2]; pH of dissolution medium raised from 1.6 to 7.3) | initial lag time before steady drug release [3] | rates of propranolol release, effect of osmotic pressure (138 mOsm to 950 mOsm at pH 7.4) | rates of propranolol release, effect of osmotic pressure (295 mOsm to 960 mOsm at pH=4.6) | release profile and rate of propranolol release, effect of ionic strength (ionic strength 0.15 to 0.3) | drug release rate, effect of the surrounding pH (pH 1.6, 4.6, 7.3, 9.4) | solubility (physchem) [mg/mL]
CC(C)(C)NC[C@H](O)COc1nsnc1N1CCOCC1 [timolol, timolol maleate] | 27 | two times faster | did not affect the release rate | 520 | two times faster | linear relationship | 187 |  |  |  |  |  |  |  | 
CC(C)NCC(O)COc1cccc2ccccc12 (stereo not drawn) [propranolol, propranolol hydrochloride] |  |  |  |  |  |  |  | equal | increased | possible to avoid the initial lag time | remained essentially constant | remained essentially constant | independent of the ionic strength of the dissolution medium | practically unaffected by the surrounding pH | 94
